# Data from PMC10485894, “Corticosteroids as Selective and Effective Modulators of Glycine Receptors” (ACS Chemical Neuroscience, 2023).
# Like-named read-outs stand apart in the source and are kept apart here.
# What was measured:
# [1] = system: GABA-A receptors (GABAAR); assay: GABA-activated chloride current (IGABA), whole-cell patch clamp in isolated cerebellar Purkinje cells
# Procedure: (§1) First, the ability of steroids to affect the holding current at the voltage-clamp regime was tested. […] Next, the influence of all of the compounds on IGABA and IGly was evaluated. […] The latter effect was quantified by the change in the time constant of the IGly decay (IGly τdes).
# (§2) The cells were isolated from rat brain slices as described in detail elsewhere.[47] Briefly, the slices (200–500 μm) of Wistar rat (11–14 days of age) hippocampus or cerebellum were incubated at room temperature for at least 2 h in a solution containing the following components (in mM): 124 NaCl, 3 KCl, 2 CaCl2, 2 MgSO4, 25 NaHCO3, 1.3 NaH2PO4, and 10 D-glucose, pH 7.4. The saline was continuously stirred and bubbled with carbogen (95% O2 + 5% CO2). Single pyramidal neurons from the hippocampal CA3 area or Purkinje cells from sagittal slices of the cerebellum were isolated by a vibrating fused glass pipet with a spherical tip.
# (§3) Transmembrane currents were recorded using a conventional patch-clamp technique in the whole-cell configuration. […] The solution in the recording pipet contained the following (in mM): 40 CsF, 100 CsCl, 0.5 CaCl2, 5 EGTA, 3 MgCl2, 4 NaATP, 5 HEPES, pH 7.3. The composition of the extracellular solution was as follows (in mM): 140 NaCl, 3 KCl, 3 CaCl2, 3 MgCl2, 10 D-glucose, 10 HEPES hemisodium, pH 7.4. The speed of perfusion was 0.6 mL/min. Recording of the currents was performed using an EPC7 patch-clamp amplifier (HEKA Elektronik, Germany). The holding potential was maintained at −70 mV. Transmembrane currents were filtered at 3 kHz, stored, and analyzed with IBM-PC computer, using homemade software.
# (§4) Statistical analysis was performed with Prism Graphpad software. […] N = 6–8 cells from 3 animals for every average value. […] The EC50 value for steroid potentiation of the IGABA was determined using the equation: Y = Bottom + (Top – Bottom)/[1 + (EC50/C)^n], where Bottom and Top are current amplitudes measured in the control solution and in the presence of steroid, respectively, C is the concentration of steroid, EC50 is the half-maximal stimulating concentration, and n is the slope factor (Hill coefficient).
# glycine receptors (GlyR) = assay: Glycine-activated chloride current (IGly), whole-cell patch clamp in isolated hippocampal pyramidal neurons; details: for Ipeak max (maximum inhibition attainable) / IC50 / τdes max (maximum inhibition attainable) / normalized charge (Q) of IGly, maximum inhibition (max): 100 μM glycine; for Ipeak max (maximum inhibition attainable) / τdes max (maximum inhibition attainable) / normalized charge (Q) of IGly, maximum inhibition (max): fraction; for IGly peak, effect at 10 μM / IGly τdes, effect at 10 μM: steroid 10 μM coapplied with 100 μM glycine; for IGly peak, effect at 10 μM: hippocampal neurons; for IGly τdes, effect at 10 μM: time constant of IGly decay; for τdes max (maximum inhibition attainable): time constant of desensitization of IGly;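 as to all read-outs here: rat CA3 hippocampal pyramidal cells, whole-cell voltage clamp held at −70 mV, steroids tested over 0.01–100 µM, 6–8 cells from 3 animals per mean value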
# Procedure: as §1, §2, §3, §4
# [2] = read-out: Ipeak IC50, peak amplitude of IGly
# [3] = read-out: τdes IC50, acceleration of IGly desensitization
# [4] = read-out: normalized charge (Q) of IGly, IC50, area under the IGly curve
# [5] = steroid 10 μM coapplied with GABA (2 or 5 μM), Purkinje cells
SMILES,Ipeak max (maximum inhibition attainable) (glycine receptors (GlyR); peak amplitude of IGly),IC50 (glycine receptors (GlyR); [2]) [µM],IC50 (glycine receptors (GlyR); [3]) [µM],"IGly peak, effect at 10 μM (glycine receptors (GlyR))","IGly τdes, effect at 10 μM (glycine receptors (GlyR)) [%]",τdes max (maximum inhibition attainable) (glycine receptors (GlyR)),"IGABA peak, effect at 10 μM [1]","IGABA peak, effect at 10 μM [1, 5]",other results
"C[C@]12CC[C@@H](O)C[C@@H]1CC[C@@H]1[C@@H]2[C@@H](O)C[C@]2(C)[C@@H](C(=O)CO)CC[C@@H]12 [3α5α-CORT, 3α,11β,21-Trihydroxy-5α-pregnan-20-one]",0.51 ± 0.1,11.8 ± 5.7,0.72 ± 0.03,-26%,-54,0.59 ± 0.08,,,"IGABA, % of control [1]: 120 ± 16 % of control; effect on maximal GABA current [1]: did not change; maximum effect (max) on IGABA [1]: 420 ± 19 % of the control; potentiating effect on IGABA at higher GABA concentrations [1]: not observed; threshold concentration for potentiation of IGABA ([1]; 2 μM GABA): 5 µM; IGABA peak amplitude, % of control ([1]; 5 μM steroid, 2 μM GABA): 150 ± 8 % of the control; IGABA, % of control ([1]; 50 μM steroid, 2 μM GABA): 371 ± 16 % of control; IGABA, % of control ([1]; 50 μM steroid, 5 μM GABA): 156 ± 15 % of control"
"C[C@]12CC[C@@H](O)C[C@H]1CC[C@@H]1[C@@H]2[C@@H](O)C[C@]2(C)[C@@H](C(=O)CO)CC[C@@H]12 [3α5β-CORT, 3α,11β,21-Trihydroxy-5β-pregnan-20-one]",0.44 ± 0.1,23 ± 9.6,15.2 ± 6.2,No effect,-24,0.56 ± 0.08,,,"IGABA peak amplitude, % of control [1]: 133 ± 8 % of the control; effect on maximal GABA current [1]: did not change; maximum effect (max) on IGABA [1]: 198 ± 11 % of the control; threshold concentration for potentiation of IGABA ([1]; 2 μM GABA): 10 µM; IGABA, % of control ([1]; 50 μM steroid, 2 μM GABA): 172 ± 18 % of control; IGABA, % of control ([1]; 50 μM steroid, 5 μM GABA): 139 ± 16 % of control"
"C[C@]12CCC(=O)C[C@@H]1CC[C@@H]1[C@@H]2CC[C@]2(C)[C@@H](C(=O)CO)CC[C@@H]12 [5α-CORT, 21-Hydroxy-5α-pregnane-3,20-dione]",0.86 ± 0.2,32 ± 12.6,0.71 ± 0.02,No effect,-36,0.37 ± 0.04,No effect,,
"C[C@]12CCC(=O)C[C@H]1CC[C@@H]1[C@@H]2CC[C@]2(C)[C@@H](C(=O)CO)CC[C@@H]12 [5β-CORT, 21-Hydroxy-5β-pregnane-3,20-dione]",0.85 ± 0.3,29.3 ± 9.9,13.1 ± 5.8,No effect,-27,0.61 ± 0.09,No effect,,"normalized charge (Q) of IGly, maximum inhibition (max) (glycine receptors (GlyR); area under the IGly curve): 0.96 ± 0.15; IC50 (glycine receptors (GlyR); [4]): 37 ± 13 µM"
"C[C@]12CCC(=O)C=C1CC[C@@H]1[C@@H]2CC[C@@]2(C)[C@H]1CC[C@]2(O)C(=O)CO [11-Deoxycortisol, 17α,21-Dihydroxypregn-4-ene-3,20-dione]",0.69 ± 0.2,21.4 ± 7.6,13.8 ± 6.3,-26%,-21,0.50 ± 0.08,,No effect,"amplitude of IGABA, % of control (inhibition) ([1]; 100 μM steroid, 5 μM GABA): 58 ± 5 % of the control"
"C[C@]12CC[C@H]3[C@@H](CCC4=CC(=O)CC[C@@]43C)[C@@H]1CC[C@@H]2C(=O)CO [11-deoxy-CORT, 21-Hydroxypregn-4-ene-3,20-dione]",0.67 ± 0.2,22.9 ± 9.4,12.2 ± 3.7,No effect,-32,0.72 ± 0.08,No effect,,"amplitude of IGABA, % of control (inhibition) [1]: 70 ± 3 % of the control; effect on IGly at low glycine (glycine receptors (GlyR); 1 μM steroid, 25 μM glycine (EC10)): did not affect; decrease in the peak amplitude of IGly (glycine receptors (GlyR); 50 μM steroid, 25 μM glycine (EC10)): 45 ± 7%"
"C[C@]12CC[C@H](O)CC1=CCC1C2CC[C@@]2(C)C1CC[C@]2(O)C(=O)CO (stereo partly drawn) [17α,21-diOH-PREG, 3β,17α,21-Trihydroxypregn-5-en-20-one]",0.45 ± 0.1,7.2 ± 2.6,0.39 ± 0.05,-27%,-76,0.77 ± 0.03,No effect,,"normalized charge (Q) of IGly, maximum inhibition (max) (glycine receptors (GlyR); area under the IGly curve): 0.52 ± 0.01; IC50 (glycine receptors (GlyR); [4]): 0.73 ± 0.06 µM"
"C[C@]12C[C@H](O)[C@H]3[C@@H](CCC4=CC(=O)CC[C@@]43C)[C@@H]1CC[C@@H]2C(=O)CO [CORT, 11β,21-Dihydroxypregn-4-ene-3,20-dion]",0.54 ± 0.1,12.6 ± 4.8,0.43 ± 0.05,-26%,-64,0.64 ± 0.02,,No effect,
"C[C@]12CCC(=O)C=C1CC[C@@H]1[C@@H]2[C@@H](O)C[C@@]2(C)[C@H]1CC[C@]2(O)C(=O)CO [Cortisol, 11β,17α,21-Trihydroxypregn-4-ene-3,20-dione]",0.49 ± 0.1,20.2 ± 9.8,0.63 ± 0.02,-23%,-40,0.42 ± 0.05,,No effect,
"C[C@]12CCC(=O)C=C1CC[C@@H]1[C@@H]2C(=O)C[C@@]2(C)[C@H]1CC[C@]2(O)C(=O)CO [Cortisone, 17α,21-Dihydroxypregn-4-ene-3,11,20-trione]",0.57 ± 0.1,13.6 ± 5.5,10.3 ± 3.4,-25%,-24,0.48 ± 0.06,,No effect,
CN1CCc2cc3c(cc2[C@H]1[C@@H]1OC(=O)c2c1ccc1c2OCO1)OCO3 [bicuculline],,,,,,,,,effect on IGABA [1]: reversibly blocked
NCC(=O)O [glycine],,,,,,,,,"EC50 (glycine receptors (GlyR); read-out: EC50 of glycine for IGly, 600–1000 ms application): 90 ± 7 µM"
